Laboratory results: PubChem BioAssay (NCI)
Several values for one entry are separate records, joined by “and”; a condition that tells them apart may be missing. Equal values may be shown once.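 96-well plates; 48 h exposure; 5 concentrations. Endpoints by linear interpolation between flanking doses. Not reached: highest tested concentration assigned. Here, GI50 denotes the concentration required for 50% inhibition of growth. TGI is the concentration that stops growth completely.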 Where a SMILES comes first, the peptide text is derived from it. [ ]: non-standard residue; d: D form. NMeY = CN[C@@H](Cc1ccc(O)cc1)C(=O)O; dNMeF = CN[C@H](Cc1ccccc1)C(=O)O; Sar = CNCC(=O)O

Columns and labels:
Experiment in all cases: inhibition of tumour cell growth, NCI panel, 48 h
[1] = system: SF-539 CNS
[2] = system: NCI-H460 lung
[3] = system: MDA-MB-231 breast
[4] = system: UACC-62 melanoma
[5] = system: BT-549 breast
[6] = system: 786-0 renal
[7] = system: NCI-H23 lung
[8] = system: MALME-3M melanoma
[9] = system: MCF7 breast
[10] = system: SF-295 CNS

Structure (SMILES) | TGI [1] | TGI [2] | TGI [3] [µM] | TGI [4] | TGI [5] | TGI [6] | TGI [7] | TGI [8] | TGI [9] | TGI [10] | GI50 [1] | GI50 [2] | GI50 [3] [µM] | GI50 [4] [µM] | GI50 [5] | GI50 [6] | GI50 [7] | GI50 [8] [µM] | GI50 [9] [µM] | GI50 [10]
OCCNc1ncnc2c1ncn2C1OC(CO)C(O)C1O (stereo not drawn) | > 100 µM | > 100 µM | 89.4 | > 100 µM | > 100 µM | > 100 µM | > 100 µM | > 100 µM | > 100 µM | > 100 µM |  |  |  |  |  |  |  |  |  | 
C/C(=N\NC(=O)c1ccccc1O)c1cccc(/C(C)=N/NC(=O)c2ccccc2O)n1 | 23.3 µM and > 100 µM | 74.1 µM and > 100 µM | > 100 | 20.6 µM and > 100 µM | > 100 µM | 45.6 µM and 18.4 µM | 63.8 µM and > 100 µM | 43.9 µM and > 100 µM | > 100 µM | 59.1 µM and > 36.1 µM | 5.96 µM and 0.918 µM | 0.535 µM | 10.6 | 0.614 | 0.441 µM | 0.616 µM | 16 µM and 1.73 µM | 0.522 | 7.8 | 0.33 µM
Nc1nc(N)c2c(ccc3nccc32)[nH]1 | > 86.1 µM | 14.5 µM | 50 | 17.6 µM | 24.1 µM | > 100 µM | > 100 µM | 33.6 µM | 15.5 µM | > 91.3 µM | 3.26 µM | 0.439 µM | 13.5 | 2.67 | 3.06 µM | 7.01 µM | 6.46 µM | 5.28 | 2.26 | 1.95 µM
CN(C)C(=O)c1cc2cnc(Nc3ccc(-c4csc5c(=O)cc(N6CCNCC6)oc45)cc3)nc2n1C1CCCC1 | 2.43 µM | 2.35 µM | 2.24 | 8.69 µM | 3.15 µM | 1.93 µM | 2.93 µM | 2.94 µM | 1.57 µM | 10.7 µM | 1.15 µM | 0.814 µM | 0.71 | 1.44 | 1.35 µM | 0.535 µM | 0.995 µM | 1.38 | 0.294 | 2.1 µM
Cc1cc2c3ccccc3ccc2[n+]2ccccc12 | 17 µM | 28.1 µM | > 100 | 20.4 µM | 7.77 µM | > 69.1 µM | 19.3 µM | 3.45 µM | > 38.8 µM | 12.7 µM | 3.47 µM | 8.81 µM | 18.5 | 6 | 1.4 µM | 6.11 µM | 2.57 µM | 0.657 | 2.35 | 2.29 µM
N#CSCc1c(Cl)cccc1Cl | > 35.5 µM | > 53.4 µM | > 63.5 | > 67.4 µM | 7.48 µM | > 100 µM | > 100 µM | > 100 µM | > 100 µM | > 91.4 µM | 3.45 µM | 4.29 µM | 3.43 | 5.18 | 2.31 µM | 5.57 µM | 5.41 µM | 8.71 | 3.27 | 16.2 µM
COc1ccc(-c2cc(-c3cn[nH]c3-c3ccccn3)ccn2)cc1 | > 25 µM | > 25 µM | > 25 | > 25 µM | > 25 µM | > 25 µM | > 25 µM | > 25 µM | > 25 µM | > 25 µM | > 25 µM | > 25 µM | > 25 | > 25 | > 25 µM | > 25 µM | > 25 µM | > 25 | > 25 | > 25 µM
CC1(C)CC(=O)c2c(ccc(C(=O)C[C@H](N)CO)c2N)O1 | 17.5 µM and 7.43 µM | 17.5 µM and > 33.3 µM | > 17.5 | 10.5 µM and 10.6 µM | 17.5 µM and 25.4 µM | > 33.3 µM | 17.5 µM and > 33.3 µM | > 33.3 µM | 17.5 µM and > 33.3 µM | 17.5 µM and > 33.3 µM |  | 0.89 µM and 0.129 µM | > 17.5 |  | 6.44 µM and 2.87 µM | > 17.5 µM and 5.1 µM | 6.42 µM and 0.733 µM | > 33.3 |  | 5.66 µM and 3.65 µM
C#C[C@@]1(O)[C@@H](CO)O[C@@H](n2ccc3c(N)ncnc32)[C@@H]1O | 4.44 µM | 10.6 µM | 5.89 | 4.48 µM | 3.64 µM | 6.15 µM | 4.32 µM | 5.55 µM | 5.67 µM | 5.33 µM | 1.9 µM | 0.473 µM | 1.53 | 1.79 | 1.63 µM | 1.63 µM | 1.18 µM | 1.68 | 0.239 | 1.73 µM
CC(=O)OC1CCC2(C)C(CCC3C4CC=C(C(C)=O)C4(C)OC(=O)CC32)C1 (stereo not drawn) | 3.55 µM | 19.3 µM | 4.33 | 3.53 µM | 3.08 µM | 6.59 µM | 10.6 µM | 3.67 µM | 3.01 µM |  | 1.8 µM | 5.02 µM | 2.05 | 1.72 | 1.58 µM | 2.52 µM | 2.9 µM | 1.61 | 1.4 | 
CC[C@H](C)[C@@H]1NC(=O)[C@H](Cc2ccc(O)cc2)N(C)C(=O)[C@H](Cc2ccccc2)NC(=O)CN(C)C(=O)[C@@H]2CCCN2C(=O)[C@@H](Cc2ccccc2)N(C)C(=O)[C@H](CC(C)C)NC1=O (cyclo(F[NMeY]IL[dNMeF]P[Sar])) | 2.61 µM | 1.94 µM | 4.28 | 2.75 µM | 4.51 µM | 5.75 µM | 5.95 µM | 1.81 µM | 2.69 µM | 3.5 µM | 0.287 µM | 0.184 µM | 0.331 | 0.367 | 0.407 µM | 0.467 µM | 0.197 µM | 0.164 | 0.103 | 0.428 µM
C[C@H]1[C@H](C)CC[C@]2(C(=O)O)CC[C@]3(C)C(=CC[C@@H]4[C@@]5(C)CC[C@H](OC(=O)/C=C/c6ccc(O)cc6)C(C)(C)[C@@H]5CC[C@]43C)[C@H]12 | 10.2 µM | > 65.9 µM | 18.3 | 31.6 µM | 13.4 µM | 9.53 µM | 8.36 µM | 20 µM | 34.4 µM | 7.04 µM | 3.8 µM | 7.08 µM | 5.1 | 15.1 | 5.11 µM | 3.57 µM | 3.11 µM | 1.9 | 3.02 | 2.27 µM
Nc1c(C(=O)c2cccc(CCC3(O)CCCC3)c2)cnn1-c1ccc(F)cc1 | > 25 µM | > 25 µM | > 25 | > 25 µM | > 25 µM | > 25 µM | > 25 µM | > 25 µM | > 25 µM | > 25 µM | 18.2 µM | 20.5 µM | > 20.9 | 12.5 | 9.75 µM | > 20.4 µM | 14.6 µM | 7.88 | 9.65 | 9.4 µM
CO[C@H]1C[C@@H]2CC[C@@H](C)[C@@](O)(O2)C(=O)C(=O)N2CCCC[C@H]2C(=O)O[C@H]([C@H](C)C[C@@H]2CC[C@@H](OP(C)(C)=O)[C@H](OC)C2)CC(=O)[C@H](C)/C=C(\C)[C@@H](O)[C@@H](OC)C(=O)[C@H](C)C[C@H](C)/C=C/C=C/C=C/1C | 21.7 µM | 21.8 µM | 27.7 | 20.7 µM | 18.6 µM | 22.7 µM | 29.1 µM | 16.8 µM | 21 µM | 15.5 µM | < 0.0234 µM |  | 12.4 | 0.386 | < 0.0131 µM | 8.92 µM | 11.1 µM | < 0.01 | 0.402 | < 0.01 µM
O=c1oc2ccc(Cl)cc2c(=O)n1-c1cc(C(F)(F)F)cc(C(F)(F)F)c1 | 1.74 µM | 5.16 µM | 4.36 | 0.673 µM | 0.86 µM | 1.14 µM | 1.11 µM | 0.696 µM | 13.5 µM | 0.504 µM | 0.317 µM | 0.308 µM | 0.289 | 0.147 | 0.258 µM | 0.316 µM | 0.289 µM | 0.222 | 0.278 | 0.206 µM
COc1cc2ccnc3c2c(c1OC)-c1ccc(=O)ccc1-3 | 77.3 µM | > 100 µM | > 100 | 34 µM | > 100 µM | > 100 µM |  | 75.5 µM | > 100 µM | 67.8 µM | 15.9 µM | 20.7 µM | 26.9 | 14.6 | 32.1 µM | 22.4 µM |  | 37.9 | 14.9 | 23.2 µM
C[C@]12CCC3c4ccc(O)cc4CCC3C1Cc1ccc(O)cc12 (stereo partly drawn) | 20.8 µM | 18.2 µM | 22.2 | 17.1 µM | 23.4 µM | 18.1 µM |  | 29.1 µM | 17.8 µM | 34.2 µM | 6.08 µM | 4.88 µM | 7.44 | 5.25 | 6.57 µM | 5.22 µM |  | 10.8 | 4.83 | 12.8 µM
COc1ccc(/C=C/C(=O)c2ccc3cc(OC)c(OC)cc3c2)cc1OC | 10.4 µM | 12.5 µM | > 100 | 16.9 µM | 8.39 µM | 27.9 µM | 32 µM | 30.2 µM | 12.1 µM |  | 2.94 µM | 3.35 µM | 6.19 | 3.71 | 2.55 µM | 4.19 µM | 6.9 µM | 13.6 | 2.69 | 
